Test results as given in US11530216B2, “Deuterated colony stimulating factor-1 receptor (CSF-1R) inhibitors” (Genzyme Corporation, priority 2020, dated 2022).

Key:
[1] = system: MCP-1 production in primary murine microglial cells; test: MCP-1 ELISA, primary mouse microglia after CSF-1 stimulation; type: cell-based; conditions: Mus musculus, Microglia, 24 h, read-out: IC50, MCP-1 production
Procedure: Primary mouse microglia were suspended at a concentration of 5×10^5 cells/mL and 100 μL of this cell suspension was added to the inner 60 wells of three 96-well plates. Microglia cells were allowed to rest overnight at 37° C., 5% CO2. […] Cells were then stimulated with 100 ng/mL recombinant mouse CSF-1 for 24 hours. After stimulation, the culture supernatant was removed from each well and aliquoted into two different 96-well plates for subsequent ELISA assays. Plates were fixed with 4% PFA for future immunocytochemistry analysis.

[2] = system: iCell microglia (human iPSC derived microglia); test: CellTiter Glo 2.0 viability assay, iCell human microglia, CSF1 stimulation; type: cell-based; conditions: 1.5625-200 nM, CSF1 100 ng/mL 24 hours
Procedure: iCell microglia (human iPSC derived microglia) were acquired from FujiFilm (cat #C1110, lot #105458). These cells were thawed and maintained in iCell Microglia Complete Media according the manufacture instructions. For this assay, iCell microglia were resuspended at a concentration of 5×10^5 cells/mL and 100 μL of this cell suspension was added to the inner 60 wells of a 96-well plate. iCell microglia were allowed to rest overnight at 37° C., 5% CO2. The following evening, the media was removed and replaced with Neurobasal Media (Gibco, cat #21103049) containing B27 supplement (Gibco, cat #17504044). Again, cells were allowed to rest overnight at 37° C., 5% CO2. […] Cells were then stimulated with 100 ng/mL recombinant human CSF1 for 24 hours. After stimulation, the culture supernatant was removed from each well and aliquoted into two different 96-well plates for subsequent ELISA assays.
Cell viability was determined using the CellTiter Glo 2.0 Luminescent Cell Viability Assay (Promega, cat #G9242). […] 100 μL was transferred from each well to a white plate and luminescence was read immediately on the FlexStation3 Multi-Mode Microplate Reader (Molecular Devices, cat #Flex3) with SoftMax Pro Software.
iCell microglia (human iPSC derived microglia) were plated at 50,000 cells per well and rested overnight. […] Cell viability was assessed utilizing Promega's Cell Titer Glo Assay Kit. […]

Question: Which results are given for `[2H]c1nc2cccnc2n1Cc1cc(OC)c2c(c1)O[C@@H](C)[C@H](c1ccc(OC)nc1)O2` [Compound 6, 3-(((2S,3S)-8-methoxy-2-(6-methoxypyridin-3-yl)-3-methyl-2,3-dihydrobenzo[b][1,4]dioxin-6-yl)methyl)-3H-imidazo[4,5-b]pyridine-2-d]?
Answer: IC50 [1]: 23.2 nM; human microglia viability [2]: did not impact human microglia viability at the concentrations assessed
